Reference: ChEMBL document CHEMBL5291721, “A preclinical secondary pharmacology resource illuminates target-adverse drug reaction associations of marketed drugs” (Nat Commun, 2023)

Experiments:
[1] = target: T1, Prostaglandin G/H synthase 1 (Rattus norvegicus, UniProt Q63921); assay type: functional
T1 sequence (Q63921 whole entry): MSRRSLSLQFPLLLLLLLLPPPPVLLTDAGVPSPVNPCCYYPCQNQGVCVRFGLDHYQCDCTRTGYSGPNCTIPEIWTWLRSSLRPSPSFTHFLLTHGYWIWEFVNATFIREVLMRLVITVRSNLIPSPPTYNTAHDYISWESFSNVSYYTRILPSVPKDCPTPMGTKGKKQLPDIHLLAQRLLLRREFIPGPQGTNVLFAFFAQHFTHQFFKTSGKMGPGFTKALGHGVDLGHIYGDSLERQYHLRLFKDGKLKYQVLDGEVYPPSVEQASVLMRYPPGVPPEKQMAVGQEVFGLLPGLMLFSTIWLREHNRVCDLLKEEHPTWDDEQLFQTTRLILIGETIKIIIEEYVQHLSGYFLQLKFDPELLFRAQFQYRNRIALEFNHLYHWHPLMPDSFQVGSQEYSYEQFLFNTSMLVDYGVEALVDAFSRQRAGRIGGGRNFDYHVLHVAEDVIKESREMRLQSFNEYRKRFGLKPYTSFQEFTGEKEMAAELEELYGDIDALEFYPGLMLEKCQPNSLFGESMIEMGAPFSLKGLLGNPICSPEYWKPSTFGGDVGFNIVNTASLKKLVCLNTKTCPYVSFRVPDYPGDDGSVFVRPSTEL

[2] = target: T2, 5-hydroxytryptamine receptor 2C (Homo sapiens, UniProt P28335)
T2 sequence (P28335 whole entry): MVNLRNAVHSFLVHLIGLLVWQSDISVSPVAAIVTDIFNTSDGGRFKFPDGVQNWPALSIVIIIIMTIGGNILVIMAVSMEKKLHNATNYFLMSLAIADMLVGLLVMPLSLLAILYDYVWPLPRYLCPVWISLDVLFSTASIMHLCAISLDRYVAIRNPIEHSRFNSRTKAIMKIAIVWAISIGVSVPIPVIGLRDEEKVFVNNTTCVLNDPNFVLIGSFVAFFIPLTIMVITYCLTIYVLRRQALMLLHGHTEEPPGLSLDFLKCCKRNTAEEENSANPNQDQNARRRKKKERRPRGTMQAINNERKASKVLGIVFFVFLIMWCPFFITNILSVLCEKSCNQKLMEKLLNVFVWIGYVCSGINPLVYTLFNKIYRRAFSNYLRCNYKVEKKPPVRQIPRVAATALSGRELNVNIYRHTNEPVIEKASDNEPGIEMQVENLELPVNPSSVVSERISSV

[3] = target: T3, Muscarinic acetylcholine receptor M2 (Homo sapiens, UniProt P08172); assay type: functional, cell-based
T3 sequence (P08172 whole entry): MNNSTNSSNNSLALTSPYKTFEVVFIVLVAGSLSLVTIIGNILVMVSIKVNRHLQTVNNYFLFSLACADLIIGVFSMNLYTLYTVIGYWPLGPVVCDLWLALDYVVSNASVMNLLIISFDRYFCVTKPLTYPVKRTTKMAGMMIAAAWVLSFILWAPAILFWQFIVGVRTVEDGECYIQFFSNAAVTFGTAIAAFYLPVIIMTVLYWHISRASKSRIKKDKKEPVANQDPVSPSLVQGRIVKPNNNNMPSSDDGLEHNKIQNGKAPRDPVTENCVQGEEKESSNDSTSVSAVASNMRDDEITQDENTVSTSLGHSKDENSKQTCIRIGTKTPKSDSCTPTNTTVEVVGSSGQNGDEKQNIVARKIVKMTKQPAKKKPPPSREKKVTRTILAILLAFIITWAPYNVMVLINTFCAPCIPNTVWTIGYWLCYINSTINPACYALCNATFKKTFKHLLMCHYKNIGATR

[4] = target: T4, Muscarinic acetylcholine receptor M1 (Homo sapiens, UniProt P11229); assay type: functional
T4 sequence (P11229 whole entry): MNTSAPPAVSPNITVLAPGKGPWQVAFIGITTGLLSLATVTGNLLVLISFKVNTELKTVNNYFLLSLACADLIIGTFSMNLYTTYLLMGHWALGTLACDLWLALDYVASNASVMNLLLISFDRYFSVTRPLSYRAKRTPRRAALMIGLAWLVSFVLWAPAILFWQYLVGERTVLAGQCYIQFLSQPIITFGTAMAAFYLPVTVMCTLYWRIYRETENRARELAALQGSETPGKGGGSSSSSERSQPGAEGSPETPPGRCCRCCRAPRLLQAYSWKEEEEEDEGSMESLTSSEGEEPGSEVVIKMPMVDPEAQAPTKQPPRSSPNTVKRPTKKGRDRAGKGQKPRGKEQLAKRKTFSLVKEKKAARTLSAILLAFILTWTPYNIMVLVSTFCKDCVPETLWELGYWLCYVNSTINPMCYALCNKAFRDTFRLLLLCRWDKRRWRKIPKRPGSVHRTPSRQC

D(1A) dopamine receptor = D(1A) dopamine receptor (Homo sapiens, UniProt P21728); assay type: functional, cell-based
[5] = target: Voltage-gated inwardly rectifying potassium channel KCNH2 (Homo sapiens, UniProt Q12809); assay type: functional; settings: read-out: AC50
[6] = target: Delta-type opioid receptor (Homo sapiens, UniProt P41143)
[7] = target: T5, Amine oxidase [flavin-containing] A (Homo sapiens, UniProt P21397); assay type: functional
T5 sequence (P21397 whole entry): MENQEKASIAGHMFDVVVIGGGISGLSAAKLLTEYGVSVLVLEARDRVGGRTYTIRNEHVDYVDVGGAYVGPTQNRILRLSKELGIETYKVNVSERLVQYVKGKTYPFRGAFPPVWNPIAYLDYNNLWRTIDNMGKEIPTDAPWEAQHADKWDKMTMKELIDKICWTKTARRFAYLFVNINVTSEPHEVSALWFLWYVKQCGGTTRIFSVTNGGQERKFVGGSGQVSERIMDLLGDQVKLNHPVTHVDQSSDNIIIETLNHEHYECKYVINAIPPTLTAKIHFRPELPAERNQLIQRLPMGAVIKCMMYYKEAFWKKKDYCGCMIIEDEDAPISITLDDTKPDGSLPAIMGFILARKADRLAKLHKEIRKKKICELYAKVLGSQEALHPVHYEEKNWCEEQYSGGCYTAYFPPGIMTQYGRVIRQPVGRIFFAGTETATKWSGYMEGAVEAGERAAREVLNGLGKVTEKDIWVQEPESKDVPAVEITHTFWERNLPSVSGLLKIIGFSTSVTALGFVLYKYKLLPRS

Mu-type opioid receptor = Mu-type opioid receptor (Homo sapiens, UniProt P35372); test: biochemical; assay type: functional
[8] = target: cGMP-inhibited 3',5'-cyclic phosphodiesterase 3A (Homo sapiens, UniProt Q14432); assay type: functional
Further: assay procedure not described here.

Delta-type opioid receptor, sequence (P41143 whole entry): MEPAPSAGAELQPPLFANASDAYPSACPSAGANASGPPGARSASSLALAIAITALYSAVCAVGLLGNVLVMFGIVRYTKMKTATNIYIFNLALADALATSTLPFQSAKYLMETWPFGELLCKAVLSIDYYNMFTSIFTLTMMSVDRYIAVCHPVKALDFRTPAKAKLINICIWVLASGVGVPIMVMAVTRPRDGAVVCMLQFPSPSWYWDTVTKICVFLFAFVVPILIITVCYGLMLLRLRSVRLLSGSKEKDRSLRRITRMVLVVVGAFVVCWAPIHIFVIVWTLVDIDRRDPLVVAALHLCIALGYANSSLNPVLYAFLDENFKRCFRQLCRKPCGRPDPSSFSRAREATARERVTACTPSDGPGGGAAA
D(1A) dopamine receptor, sequence (P21728 whole entry): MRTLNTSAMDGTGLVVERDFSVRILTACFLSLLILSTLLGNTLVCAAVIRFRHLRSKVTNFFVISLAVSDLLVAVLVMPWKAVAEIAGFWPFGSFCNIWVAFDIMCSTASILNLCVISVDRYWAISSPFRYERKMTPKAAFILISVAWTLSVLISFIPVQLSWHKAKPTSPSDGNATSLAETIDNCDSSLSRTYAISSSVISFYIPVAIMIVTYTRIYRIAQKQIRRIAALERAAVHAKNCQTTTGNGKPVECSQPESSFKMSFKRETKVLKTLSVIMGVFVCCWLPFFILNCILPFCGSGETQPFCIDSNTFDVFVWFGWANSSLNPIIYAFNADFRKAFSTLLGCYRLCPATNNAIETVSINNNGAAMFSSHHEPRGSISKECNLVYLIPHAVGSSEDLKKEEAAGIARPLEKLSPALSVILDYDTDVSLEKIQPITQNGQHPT
cGMP-inhibited 3',5'-cyclic phosphodiesterase 3A, sequence (Q14432 whole entry): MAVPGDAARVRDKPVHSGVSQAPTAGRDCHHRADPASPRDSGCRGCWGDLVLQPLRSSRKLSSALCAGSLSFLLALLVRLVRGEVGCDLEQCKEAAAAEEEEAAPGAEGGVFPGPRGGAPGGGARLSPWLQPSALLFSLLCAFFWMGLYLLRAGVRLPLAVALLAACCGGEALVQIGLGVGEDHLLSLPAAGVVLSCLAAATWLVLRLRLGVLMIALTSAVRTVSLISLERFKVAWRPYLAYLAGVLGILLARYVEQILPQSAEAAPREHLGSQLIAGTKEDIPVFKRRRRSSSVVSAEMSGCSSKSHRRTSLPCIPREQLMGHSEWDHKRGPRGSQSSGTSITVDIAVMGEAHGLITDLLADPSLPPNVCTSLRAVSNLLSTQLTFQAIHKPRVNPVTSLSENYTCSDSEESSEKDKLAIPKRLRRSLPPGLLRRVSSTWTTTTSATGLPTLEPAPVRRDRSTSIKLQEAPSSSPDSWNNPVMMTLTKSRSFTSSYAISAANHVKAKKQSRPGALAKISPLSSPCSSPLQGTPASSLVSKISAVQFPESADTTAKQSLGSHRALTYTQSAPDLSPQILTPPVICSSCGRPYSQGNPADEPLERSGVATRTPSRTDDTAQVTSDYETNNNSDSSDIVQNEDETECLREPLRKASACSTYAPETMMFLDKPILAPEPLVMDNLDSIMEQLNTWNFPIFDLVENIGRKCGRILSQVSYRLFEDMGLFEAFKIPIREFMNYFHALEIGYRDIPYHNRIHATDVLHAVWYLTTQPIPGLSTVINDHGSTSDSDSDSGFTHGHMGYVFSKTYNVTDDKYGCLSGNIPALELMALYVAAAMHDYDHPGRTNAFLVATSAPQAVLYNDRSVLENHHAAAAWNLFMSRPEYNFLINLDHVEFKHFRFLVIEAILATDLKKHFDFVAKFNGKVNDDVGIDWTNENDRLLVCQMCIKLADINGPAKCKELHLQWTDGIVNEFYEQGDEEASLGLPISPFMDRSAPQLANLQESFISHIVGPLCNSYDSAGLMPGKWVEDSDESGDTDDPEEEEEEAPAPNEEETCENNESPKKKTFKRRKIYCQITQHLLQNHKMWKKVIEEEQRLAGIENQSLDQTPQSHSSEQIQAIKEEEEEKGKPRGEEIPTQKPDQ
Mu-type opioid receptor, sequence (P35372 whole entry): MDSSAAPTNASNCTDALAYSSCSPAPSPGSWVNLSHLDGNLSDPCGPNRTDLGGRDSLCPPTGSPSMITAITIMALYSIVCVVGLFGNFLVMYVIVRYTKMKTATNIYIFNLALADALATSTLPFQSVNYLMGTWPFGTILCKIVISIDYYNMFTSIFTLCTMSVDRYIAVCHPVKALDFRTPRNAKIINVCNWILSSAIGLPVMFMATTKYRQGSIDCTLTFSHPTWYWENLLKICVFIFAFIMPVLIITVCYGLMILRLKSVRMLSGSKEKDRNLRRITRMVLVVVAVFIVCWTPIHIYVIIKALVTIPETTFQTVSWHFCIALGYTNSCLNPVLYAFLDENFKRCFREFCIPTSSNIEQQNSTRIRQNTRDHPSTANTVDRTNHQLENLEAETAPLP
Voltage-gated inwardly rectifying potassium channel KCNH2, sequence (Q12809 whole entry): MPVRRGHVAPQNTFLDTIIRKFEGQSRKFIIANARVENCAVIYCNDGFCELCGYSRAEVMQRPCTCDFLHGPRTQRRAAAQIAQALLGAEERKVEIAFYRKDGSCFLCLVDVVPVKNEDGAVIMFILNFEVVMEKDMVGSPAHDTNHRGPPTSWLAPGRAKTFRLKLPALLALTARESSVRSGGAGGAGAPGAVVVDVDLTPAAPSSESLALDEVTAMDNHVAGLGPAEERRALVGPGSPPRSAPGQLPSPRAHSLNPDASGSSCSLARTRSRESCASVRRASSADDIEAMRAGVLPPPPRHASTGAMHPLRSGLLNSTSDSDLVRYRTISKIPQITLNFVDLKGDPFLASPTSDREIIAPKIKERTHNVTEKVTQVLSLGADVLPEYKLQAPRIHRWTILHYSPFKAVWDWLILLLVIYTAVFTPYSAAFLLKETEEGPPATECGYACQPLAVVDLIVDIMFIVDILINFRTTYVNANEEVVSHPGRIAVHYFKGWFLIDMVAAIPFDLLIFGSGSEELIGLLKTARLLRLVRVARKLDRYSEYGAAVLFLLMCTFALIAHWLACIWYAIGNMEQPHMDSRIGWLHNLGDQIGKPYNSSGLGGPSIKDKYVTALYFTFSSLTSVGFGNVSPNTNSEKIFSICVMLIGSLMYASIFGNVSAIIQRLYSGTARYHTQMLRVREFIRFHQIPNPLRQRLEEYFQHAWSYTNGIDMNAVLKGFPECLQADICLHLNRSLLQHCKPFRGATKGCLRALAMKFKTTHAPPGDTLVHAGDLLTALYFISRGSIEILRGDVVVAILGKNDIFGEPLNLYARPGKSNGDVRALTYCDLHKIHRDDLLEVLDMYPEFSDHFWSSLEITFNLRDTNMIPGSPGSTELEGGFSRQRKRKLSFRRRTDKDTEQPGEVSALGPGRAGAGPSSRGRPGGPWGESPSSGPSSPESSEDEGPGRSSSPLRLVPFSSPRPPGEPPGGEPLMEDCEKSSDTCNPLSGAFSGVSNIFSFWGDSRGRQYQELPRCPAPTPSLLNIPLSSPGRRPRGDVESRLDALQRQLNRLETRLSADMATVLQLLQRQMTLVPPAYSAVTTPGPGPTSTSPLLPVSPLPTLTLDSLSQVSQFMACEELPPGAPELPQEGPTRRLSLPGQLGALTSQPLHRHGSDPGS

SMILES | AC50 [1] | AC50 [2] | AC50 [3] | AC50 [4] | AC50 (D(1A) dopamine receptor) | AC50 [5] | AC50 [6] | AC50 [7] | AC50 (Mu-type opioid receptor) | AC50 [8]
N#Cc1ccccc1-c1cc(-c2ccccn2)cn(-c2ccccc2)c1=O | > 30 µM | > 30 µM | > 30 µM | > 30 µM | > 30 µM | > 30 µM | > 30 µM | > 30 µM | > 30 µM | > 30 µM
N=C(N)NCCCCCCC(=O)NC(O)C(=O)NCCCCNCCCN (centres undefined) | > 30 µM | > 30 µM | > 30 µM | > 30 µM | > 30 µM | > 30 µM | > 30 µM | > 30 µM | > 30 µM | > 30 µM
C=C[C@@]1(C)CC(=O)[C@]2(O)[C@@]3(C)[C@@H](O)CCC(C)(C)[C@@H]3[C@H](OC(=O)CCN(C)C)[C@H](OC(C)=O)[C@@]2(C)O1 | > 30 µM | > 30 µM | > 30 µM | > 30 µM |  | 7.8 µM |  | > 30 µM | > 30 µM | > 30 µM
O=C(CCCN1CCC(n2c(O)nc3ccccc32)CC1)c1ccc(F)cc1 [BENPERIDOL] | > 30 µM | 13 µM | > 30 µM | 13 µM | > 30 µM | 0.11 µM | > 30 µM |  | > 30 µM | > 30 µM
CCN(CC)C(=O)C1CN2CCc3cc(OC)c(OC)cc3C2CC1OC(C)=O (centres undefined) [BENZQUINAMIDE] | 2.72 µM | 17 µM | > 30 µM | > 30 µM | > 30 µM | > 30 µM | > 30 µM | > 30 µM | > 30 µM | > 30 µM
CCC(=O)OCC(=O)[C@@]1(OC(=O)CC)[C@@H](C)C[C@H]2[C@@H]3CCC4=CC(=O)C=C[C@]4(C)[C@@]3(F)[C@@H](O)C[C@@]21C [BETAMETHASONE DIPROPIONATE] | > 10 µM | > 30 µM | > 30 µM | > 30 µM | > 30 µM | > 30 µM |  | > 30 µM | > 30 µM | > 30 µM
CCCCC1(CC)C(=O)NC(=O)NC1=O [BUTETHAL] | > 30 µM | > 30 µM | > 30 µM | > 30 µM | > 30 µM | > 30 µM | > 30 µM | > 30 µM | > 30 µM | > 30 µM
CCOC(=O)NNc1ccc(N(CC)CC(C)O)nn1 (centres undefined) [CADRALAZINE] | 0.5 µM | > 30 µM | > 30 µM | > 30 µM | > 30 µM | > 30 µM | > 30 µM | > 30 µM | > 30 µM | > 30 µM
C=CC1=C(C(=O)O)N2C(=O)[C@@H](NC(=O)/C(=N\OCC(=O)O)c3csc(N)n3)[C@H]2SC1 [CEFIXIME] | > 30 µM |  | > 30 µM | > 30 µM | > 30 µM | > 30 µM |  | > 30 µM | > 30 µM | > 30 µM
CO[C@@]1(NC(=O)Cc2cccs2)C(=O)N2C(C(=O)O)=C(COC(N)=O)CS[C@@H]21 [CEFOXITIN] | > 30 µM | > 30 µM | > 30 µM | > 30 µM | > 30 µM | > 30 µM | > 30 µM | > 30 µM | > 30 µM | > 30 µM
CCN(CC)CCOC(=O)c1ccc(N)cc1Cl [CHLOROPROCAINE] | > 30 µM | 17 µM | > 30 µM | > 30 µM | > 30 µM | 11 µM | > 30 µM | 7.9 µM | > 30 µM | > 30 µM
COCCOC(=O)C1=C(C)NC(C)=C(C(=O)OC/C=C/c2ccccc2)C1c1cccc([N+](=O)[O-])c1 (centres undefined) [CILNIDIPINE] | > 30 µM | > 30 µM | > 30 µM | > 30 µM | > 30 µM | > 30 µM | > 30 µM | > 30 µM | > 30 µM | > 30 µM
CCC(C)(Oc1ccc(C2(c3ccc(OC(C)(CC)C(=O)O)cc3)CCCCC2)cc1)C(=O)O (centres undefined) [CLINOFIBRATE] | > 30 µM | > 30 µM | > 30 µM | > 30 µM | > 30 µM | > 30 µM | > 30 µM | > 30 µM | > 30 µM | > 30 µM
CCN(CC)CC(=O)Oc1ccc(NC(C)=O)cc1 [PROPACETAMOL] |  | > 30 µM | > 30 µM | > 30 µM | > 30 µM | > 30 µM | > 30 µM | > 30 µM | > 30 µM | > 30 µM
Cc1cc2nc3c(=O)[nH]c(=O)nc-3n(C[C@H](O)[C@H](O)[C@H](O)COP(=O)(O)O)c2cc1C [RIBOFLAVIN 5'-PHOSPHATE] | 0.9 µM | 24 µM |  | > 30 µM | > 30 µM |  | > 30 µM | > 30 µM | > 30 µM | > 30 µM
CN1c2ccccc2C(NCCCCCCC(=O)O)c2ccc(Cl)cc2S1(=O)=O (centres undefined) [TIANEPTINE] | > 30 µM | > 30 µM | > 30 µM | > 30 µM | > 30 µM |  | 28 µM | > 30 µM | 2.6 µM | > 30 µM
COc1cc2c(Nc3ccc(Br)cc3F)ncnc2cc1OCC1CCN(C)CC1 [VANDETANIB] | > 30 µM | > 30 µM | > 30 µM | 11 µM | > 30 µM |  | > 30 µM | > 30 µM | > 30 µM | > 30 µM
